In ChEMBL document CHEMBL3758102, “Serrulatane Diterpenoid from Eremophila neglecta Exhibits Bacterial Biofilm Dispersion and Inhibits Release of Pro-inflammatory Cytokines from Activated Macrophages” (J Nat Prod, 2015):
In brackets after ≈: the same amount, converted by molar mass. Activity calls are given as the source filed them. No cut-off for these calls is given here.

Columns and labels:
Staphylococcus aureus [1] = assay: Antibacterial activity against Staphylococcus aureus ATCC 29213 incubated overnight by broth microdilution method; assay type: functional
[2] = Induction of apoptosis in C57Bl/6 mouse BMDM cells assessed as dead cells at 20 uM by annexin V-FITC/DAPI staining-based flow cytometric analysis (reference value: 24.4%); assay type: functional, C57BI/6
[3] = Induction of apoptosis in C57Bl/6 mouse BMDM cells assessed as late apoptotic cells at 160 uM by annexin V-FITC/DAPI staining-based flow cytometric analysis (reference value: 28.4%); assay type: functional, C57BI/6
Staphylococcus aureus [4] = assay: Antibacterial activity against Staphylococcus aureus ATCC 25923 incubated overnight by broth microdilution method; assay type: functional
[5] = Induction of apoptosis in C57Bl/6 mouse BMDM cells assessed as early apoptotic cells at 160 uM by annexin V-FITC/DAPI staining-based flow cytometric analysis (reference value: 0.49%); assay type: functional, C57BI/6
[6] = Induction of apoptosis in C57Bl/6 mouse BMDM cells assessed as viable cells at 40 uM by annexin V-FITC/DAPI staining-based flow cytometric analysis (reference value: 46.7%); assay type: functional; conditions: C57BI/6, BMDM, read-out: Activity
[7] = test system: Staphylococcus epidermidis; assay: Antibiofilm activity against Staphylococcus epidermidis ATCC 35984 assessed as 24 hrs pre-established biofilm viable cell count after 20 hrs (reference value: 1.4 x 10^10 +/- 2.6 x 10^9 CFU/ml); assay type: functional
[8] = Induction of apoptosis in C57Bl/6 mouse BMDM cells assessed as dead cells at 40 uM by annexin V-FITC/DAPI staining-based flow cytometric analysis (reference value: 24.4%); assay type: functional, C57BI/6
[9] = test system: Staphylococcus epidermidis; assay: Antibiofilm activity against Staphylococcus epidermidis ATCC 35984 assessed as 12 hrs pre-established supernatant viable cell count at 0.16 umol/mesh after 20 hrs by […] using compound impregnated in polypropylene mesh (Rvb =7.7 x 10^8 CFU/ml); assay type: functional
[10] = Induction of apoptosis in C57Bl/6 mouse BMDM cells assessed as dead cells at 2.5 uM by annexin V-FITC/DAPI staining-based flow cytometric analysis (reference value: 24.4%); assay type: functional, C57BI/6
[11] = test system: Staphylococcus epidermidis; assay: Antibiofilm activity against Staphylococcus epidermidis ATCC 35984 assessed as induction of loosely attached live and dead bacteria in 12 hrs pre-established biofilm at 0.064 umol/well after 20 hrs by fluorescence staining-based confocal microscopic analysis; assay type: functional, organism-based
[12] = test system: Staphylococcus epidermidis; assay: Antibiofilm activity against Staphylococcus epidermidis ATCC 35984 assessed as inhibition of 24 hrs pre-established biofilm formation at 0.064 umol/well after 20 hrs by visible spectrometric analysis; assay type: functional, organism-based
[13] = test system: Staphylococcus epidermidis; assay: (§1) Antibiofilm activity against Staphylococcus epidermidis ATCC 35984 assessed as 12 hrs pre-established supernatant viable cell count at 0.01 umol/mesh after 20 hrs by […] using compound impregnated in polypropylene mesh (Rvb =7.7 x 10^8 CFU/ml); assay type: functional
[14] = test system: Staphylococcus epidermidis; assay: Antibiofilm activity against Staphylococcus epidermidis ATCC 35984 assessed as inhibition of 12 hrs pre-established biofilm formation at 0.064 umol/well after 20 hrs by visible spectrometric analysis; assay type: functional, organism-based
BMDM [15] = assay: Inhibition of IL10 production in C57Bl/6 mouse BMDM cells by ELISA; assay type: functional, cell-based; conditions: C57BI/6
BMDM [16] = assay: Increase in IL-1beta production in C57Bl/6 mouse BMDM cells at 20 uM pretreated for 1 hr prior to ATP-stimulation by ELISA; assay type: functional, cell-based; conditions: C57BI/6
[17] = test system: Staphylococcus epidermidis; assay: Antibiofilm activity against Staphylococcus epidermidis ATCC 35984 assessed as 12 hrs pre-established supernatant viable cell count at 0.08 umol/mesh after 20 hrs by […] using compound impregnated in polypropylene mesh (Rvb =7.7 x 10^8 CFU/ml); assay type: functional
[18] = test system: Staphylococcus epidermidis; assay: (§2) Antibiofilm activity against Staphylococcus epidermidis ATCC 35984 assessed as 12 hrs pre-established supernatant viable cell count at 0.04 umol/mesh after 20 hrs by […] using compound impregnated in polypropylene mesh (Rvb =7.7 x 10^8 CFU/ml); assay type: functional
Staphylococcus aureus [19] = assay: Antibiofilm activity against Staphylococcus aureus ATCC 35556 assessed as inhibition of 24 hrs pre-established biofilm formation at 0.064 umol/well after 20 hrs by safranin staining-based method; assay type: functional, organism-based
[20] = test system: Staphylococcus epidermidis; assay: Antibiofilm activity against Staphylococcus epidermidis ATCC 35984 assessed as inhibition of 24 hrs pre-established biofilm formation at 0.064 umol/well after 20 hrs by safranin staining-based method; assay type: functional, organism-based
[21] = Induction of apoptosis in C57Bl/6 mouse BMDM cells assessed as late apoptotic cells at 80 uM by annexin V-FITC/DAPI staining-based flow cytometric analysis (reference value: 28.4%); assay type: functional, C57BI/6
[22] = Induction of apoptosis in C57Bl/6 mouse BMDM cells assessed as viable cells at 160 uM by annexin V-FITC/DAPI staining-based flow cytometric analysis (reference value: 46.7%); assay type: functional; conditions: C57BI/6, BMDM, read-out: Activity
[23] = test system: Staphylococcus epidermidis; assay: Antibiofilm activity against Staphylococcus epidermidis ATCC 35984 assessed as 6 hrs pre-established biofilm viable cell count after 20 hrs (reference value: 8.3 x 10^9 CFU/ml); assay type: functional
[24] = test system: Staphylococcus epidermidis; assay: Antibiofilm activity against Staphylococcus epidermidis ATCC 35984 assessed as inhibition of 12 hrs pre-established biofilm formation after 20 hrs by safranin staining-based UV-visible spectroscopic analysis using compound impregnated in polypropylene mesh; assay type: functional, organism-based
[25] = Induction of apoptosis in C57Bl/6 mouse BMDM cells assessed as viable cells at 80 uM by annexin V-FITC/DAPI staining-based flow cytometric analysis (reference value: 46.7%); assay type: functional; conditions: C57BI/6, BMDM, read-out: Activity
[26] = test system: Staphylococcus epidermidis; assay: as §1, with “biofilm” for “supernatant”, “(reference value: 8.6” for “(Rvb =7.7”, “10^9” for “10^8”; assay type: functional
[27] = Induction of apoptosis in C57Bl/6 mouse BMDM cells assessed as early apoptotic cells at 40 uM by annexin V-FITC/DAPI staining-based flow cytometric analysis (reference value: 0.49%); assay type: functional, C57BI/6
BMDM [28] = assay: Inhibition of IL-6 production in C57Bl/6 mouse BMDM cells at 10 uM pretreated prior to LPS-stimulation measured on day 7 by ELISA; assay type: functional, cell-based; conditions: C57BI/6
[29] = test system: Staphylococcus epidermidis; assay: Antibiofilm activity against Staphylococcus epidermidis ATCC 35984 assessed as 12 hrs pre-established supernatant viable cell count at 0.02 umol/mesh after 20 hrs by […] using compound impregnated in polypropylene mesh (Rvb =7.7 x 10^8 CFU/ml); assay type: functional
BMDM [30] = assay: Inhibition of TNFalpha production in C57Bl/6 mouse BMDM cells at 40 to 80 uM pretreated prior to LPS-stimulation measured on day 7 by ELISA; assay type: functional, cell-based; conditions: C57BI/6
[31] = test system: Staphylococcus epidermidis; assay: as §2, with “biofilm” for “supernatant”, “(reference value: 8.6” for “(Rvb =7.7”, “10^9” for “10^8”; assay type: functional
[32] = Induction of apoptosis in C57Bl/6 mouse BMDM cells assessed as late apoptotic cells at 40 uM by annexin V-FITC/DAPI staining-based flow cytometric analysis (reference value: 28.4%); assay type: functional, C57BI/6

`CC(C)=CCC[C@H](C)[C@@H]1CC[C@@H](C)c2c(O)cc(C(=O)O)cc21` gave an MBC (Staphylococcus aureus [1]) of 82 µM (≈ 25.9 µg/mL), an MIC (Staphylococcus aureus [1]) of 82 µM (≈ 25.9 µg/mL) and an Activity [2] of 6.76%. It also gave an Activity [3] of 3.88%, an MBC (Staphylococcus aureus [4]) of 82 µM (≈ 25.9 µg/mL) and an MIC (Staphylococcus aureus [4]) of 41 µM (≈ 13 µg/mL). It also gave an Activity [5] of 42.5%, a viability at 40 µM [6] of 49.5% and an Activity [7] of 4.2 ×10⁸ CFU/ml. The Activity [8] was 21.8%, the Activity [9] was 9 ×10³ CFU/ml and the Activity [10] was 13.3%. The Activity [11] was “Active”, the inhibition [12] was “Active” and the Activity [13] was 3.4 ×10⁸ CFU/ml. The inhibition [14] was “Active”, the inhibition (BMDM [15]) was “inactive” and the Activity (BMDM [16]) was “inactive”. For the same compound, the Activity [17] was 4.4 ×10⁴ CFU/ml, the Activity [18] was 1.5 ×10⁷ CFU/ml and the inhibition (Staphylococcus aureus [19]) was “Active”. For the same compound, the Activity [20] was “inactive”, the Activity [21] was 44.4% and the viability at 160 µM [22] was 53%. The Activity [23] was 0 CFU/ml, the inhibition [24] was “Dose-dependent effect” and the viability at 80 µM [25] was 31%. For the same compound, the Activity [26] was 1.6 ×10⁹ CFU/ml, the Activity [27] was 0.99% and the inhibition (BMDM [28]) was “inactive”. The Activity [29] was 5 ×10⁷ CFU/ml, the inhibition (BMDM [30]) was “Active” and the Activity [31] was 6.7 ×10⁸ CFU/ml. The Activity [32] was 27.7%.
